According to article PMC13052075, “Synthesis of 1,2,3,4‐Tetrahydroisoquinoline‐3‐Carboxylic Acid‐Embedded Decapeptides: In Silico Studies and In Vitro Evaluation Against Breast Cancer” (ChemistryOpen, 2025):
One block for each compound: values may come before it. Non-standard residues stand in square brackets, D forms with d. Residues, ends and D or L forms follow the SMILES beside them. Tic = O=C(O)[C@@H]1Cc2ccccc2CN1

Test system: MCF‐7 human breast cancer cell line
Assay: cells
Conditions: for IC50: 24 h
Experimental: Using GraphPad Prism software, the IC50 values were determined (Figure 8). After conducting the MTT assay, the absorbance data was entered into the software to generate dose–response curves. The nonlinear regression analysis function, specifically log(inhibitor) verus normalized response was employed to calculate the IC50 values for each compound. This method allowed for accurate determination of the concentration required to inhibit 50% of cell viability.
The MTT assay (3‐[4,5‐dimethylthiazol‐2‐yl]‐2,5‐diphenyltetrazolium bromide) was employed to evaluate the anticancer potential of the synthesized compounds against the MCF‐7 human breast cancer cell line. MCF‐7 cells were seeded into a 96‐well plate at a density of 1 × 10^4 cells per well and allowed to adhere for 24 h. Subsequently, the cells were treated with the test compounds at concentrations of 0.1, 1, 2, 5, and 10 µM, prepared in plain Dulbecco's Modified Eagle Medium (DMEM) media. After 24 h of incubation, MTT solution (100 µg per well; Sigma‐Aldrich) was added, and the plates were incubated for an additional 3–4 h to allow the formation of formazan crystals. The resulting formazan was dissolved in DMSO, and absorbance was measured at 570 nm using a microplate reader.

IC50: 4.49 µM
SMILES: CC(C)C[C@H](NC(=O)[C@H](Cc1c[nH]c2ccccc12)NC(=O)[C@H](CO)NC(=O)[C@H](CCC(=O)O)NC(=O)[C@@H]1Cc2ccccc2CN1C(=O)[C@H](Cc1c[nH]cn1)NC(=O)[C@H](CCCCN)NC(=O)[C@H](CCCNC(=N)N)NC(=O)[C@H](CS)NC(=O)[C@@H](N)CCCCN)C(=O)O [DEC‐3] (H-KCRKH[Tic]ESWL-OH)

IC50: 6.1 µM
SMILES: CC(C)C[C@H](NC(=O)[C@H](Cc1c[nH]c2ccccc12)NC(=O)[C@H](CO)NC(=O)[C@H](CCC(=O)O)NC(=O)[C@@H]1Cc2ccccc2CN1C(=O)[C@H](Cc1c[nH]cn1)NC(=O)[C@H](CCCNC(=N)N)NC(=O)[C@H](CCCCN)NC(=O)[C@H](CS)NC(=O)[C@@H](N)CCCNC(=N)N)C(=O)O [DEC‐2] (H-RCKRH[Tic]ESWL-OH)

SMILES: CC/C(=C(\c1ccccc1)c1ccc(OCCN(C)C)cc1)c1ccccc1 [Tamoxifen, tamoxifen]
inhibition at 0.1 µM (Homo sapiens, MCF7, 24 h, read-out: % Inhibition 0.1 µM): 14.1 ± 5.41% | inhibition at 1 µM (Homo sapiens, MCF7, 24 h, read-out: % Inhibition 1 µM): 29.6 ± 10.4% | inhibition at 2 µM (Homo sapiens, MCF7, 24 h, read-out: % Inhibition 2 µM): 38.2 ± 2.76% | inhibition at 5 µM (Homo sapiens, MCF7, 24 h, read-out: % Inhibition 5 µM): 57.2 ± 5.99% | inhibition at 10 µM (Homo sapiens, MCF7, 24 h, read-out: % Inhibition 10 µM): 92.21 ± 0.73%

IC50: 3.38 µM
SMILES: CC(C)C[C@H](NC(=O)[C@H](Cc1c[nH]c2ccccc12)NC(=O)[C@H](CO)NC(=O)[C@H](CCC(=O)O)NC(=O)[C@@H]1Cc2ccccc2CN1C(=O)[C@H](CCCCN)NC(=O)[C@H](Cc1c[nH]cn1)NC(=O)[C@H](CCCNC(=N)N)NC(=O)CNC(=O)[C@@H](N)Cc1c[nH]cn1)C(=O)O [DEC‐1] (H-HGRHK[Tic]ESWL-OH)
